Experiment [1] addresses T1, recombinant human GBA (beta-glucocerebrosidase) (Homo sapiens, UniProt P04062).
T1 sequence (P04062 40-536): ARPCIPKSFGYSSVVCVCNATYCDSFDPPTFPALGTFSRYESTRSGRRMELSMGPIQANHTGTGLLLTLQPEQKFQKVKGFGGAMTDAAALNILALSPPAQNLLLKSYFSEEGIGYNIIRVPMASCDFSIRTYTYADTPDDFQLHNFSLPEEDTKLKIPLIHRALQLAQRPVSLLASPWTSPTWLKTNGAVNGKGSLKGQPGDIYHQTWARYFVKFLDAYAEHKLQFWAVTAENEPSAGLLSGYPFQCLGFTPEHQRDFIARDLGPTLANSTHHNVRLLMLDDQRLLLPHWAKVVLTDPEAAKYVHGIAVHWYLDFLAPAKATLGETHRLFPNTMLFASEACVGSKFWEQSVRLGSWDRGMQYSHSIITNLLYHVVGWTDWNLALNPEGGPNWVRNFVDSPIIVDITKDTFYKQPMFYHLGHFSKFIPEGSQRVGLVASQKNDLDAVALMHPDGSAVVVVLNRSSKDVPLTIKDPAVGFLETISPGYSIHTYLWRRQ
Kind of experiment: Beta-glucocerebrosidase (GBA, glucosylceramidase) assay (4-methylumbelliferyl-beta-D-pyranoside substrate, fluorescence). The experiment is classed as biochemical. An outline of the steps: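 Recombinant human GBA preincubated with compound dilutions 60 min at 37 °C, then 4-methylumbelliferyl-beta-D-pyranoside added for 60 min at 37 °C. Stopped at pH 10 (glycine/NaOH); fluorescence ex 365/em 440 nm. IC50 from 4-PL fit of inhibition relative to untreated enzyme.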

Experiment [2] has as its target recombinant human GAA (acid alpha-glucosidase) (Homo sapiens, UniProt P10253). Kind of experiment: Acid alpha-glucosidase (GAA) assay (4-methylumbelliferyl-alpha-D-pyranoside substrate, fluorescence). It counts as biochemical. An outline of the steps: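 Recombinant human enzyme preincubated 60 min at 37 °C with compound dilutions, then 4-methylumbelliferyl-alpha-D-pyranoside substrate added for 20 min at 37 °C. Stopped with glycine/NaOH pH 10; methylumbelliferone fluorescence (ex 365, em 440 nm) versus untreated enzyme; IC50 by 4-PL fit.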

Structures are written as SMILES. Bounds are passed on as bounds.

These results are taken from patent US20250197372A1 (priority 2020, published 2025).

`O=[N+]([O-])c1cc(N2CC3CC2CO3)ccc1NCc1ccc(CN2C[C@@H](O)[C@H](O)[C@@H](O)[C@@H]2CO)cc1` (stereo in doubt) [Compound 1015, (2S,3S,4S,5R)-2-(hydroxymethyl)-1-[(4-{[(2-nitro-4-{2-oxa-5-azabicyclo[2.2.1]heptan-5-yl}phenyl)amino]methyl}phenyl)methyl]piperidine-3,4,5-triol]: the IC50 is over 100000 nM in experiment [1] and 129 nM in experiment [2].
On the same counts, the results for `CN(Cc1cccc(CN2C[C@H](O)[C@@H](O)[C@H](O)[C@H]2CO)c1)c1ccc(CN2CCCO2)cc1[N+](=O)[O-]` [Compound 1020] are 76300 nM and 1160 nM.
On the same counts, the results for `Cc1cc(Br)cc(NCc2cccc(CN3C[C@H](O)[C@@H](O)[C@H](O)[C@H]3CO)c2)c1` [Compound 1021, (2R,3R,4R,5S)-1-[(3-{[(3-bromo-5-methylphenyl)amino]methyl}phenyl)methyl]-2-(hydroxymethyl)piperidine-3,4,5-triol] are 25800 nM and 2090 nM.
On to `N#Cc1cc(Br)cc(NCc2cccc(CN3C[C@H](O)[C@@H](O)[C@H](O)[C@H]3CO)c2)c1` [Compound 1023, 3-bromo-5-{[(3-{[(2R,3R,4R,5S)-3,4,5-trihydroxy-2-(hydroxymethyl)piperidin-1-yl]methyl}phenyl)methyl]amino}benzonitrile], for which the half-inhibitory concentration (IC50) in experiment [1] turned out to be 91100 nM; in experiment [2], 1440 nM.
Taken in the same sequence, the figures for `Cc1cc(Br)cc(NCc2ccc(CN3C[C@H](O)[C@@H](O)[C@H](O)[C@H]3CO)cc2)c1` [Compound 1024, (2R,3R,4R,5S)-1-[(4-{[(3-bromo-5-methylphenyl)amino]methyl}phenyl)methyl]-2-(hydroxymethyl)piperidine-3,4,5-triol] were 21100 nM and 221 nM.
Taken in the same sequence, the figures for `CS(=O)(=O)c1cc(Br)cc(NCc2ccc(CN3C[C@H](O)[C@@H](O)[C@H](O)[C@H]3CO)cc2)c1` [Compound 1025, (2R,3R,4R,5S)-1-[(4-{[(3-bromo-5-methanesulfonylphenyl)amino]methyl}phenyl)methyl]-2-(hydroxymethyl)piperidine-3,4,5-triol] were 38900 nM and 135 nM.
As to `N#Cc1cc(Br)cc(NCc2ccc(CN3C[C@H](O)[C@@H](O)[C@H](O)[C@H]3CO)cc2)c1` [Compound 1026, 3-bromo-5-{[(4-{[(2R,3R,4R,5S)-3,4,5-trihydroxy-2-(hydroxymethyl)piperidin-1-yl]methyl}phenyl)methyl]amino}benzonitrile], the IC50 in experiment [1] was found to be 37900 nM; in experiment [2], 64 nM.
Taken in the same sequence, the figures for `OC[C@@H]1[C@@H](O)[C@H](O)[C@@H](O)CN1Cc1cccc(CNc2ccc(Br)cc2)c1` [Compound 1027, (2R,3R,4R,5S)-1-[(3-{[(4-bromophenyl)amino]methyl}phenyl)methyl]-2-(hydroxymethyl)piperidine-3,4,5-triol] were 75700 nM and 2830 nM.
On the same counts, the results for `OC[C@@H]1[C@@H](O)[C@H](O)[C@@H](O)CN1Cc1ccc(CNc2ccc(Br)cc2)cc1` [Compound 1028, (2R,3R,4R,5S)-1-[(4-{[(4-bromophenyl)amino]methyl}phenyl)methyl]-2-(hydroxymethyl)piperidine-3,4,5-triol] are 12900 nM and 666 nM.
Regarding `O=[N+]([O-])c1cc(Br)ccc1NCc1cccc(CN2C[C@H](O)[C@@H](O)[C@H](O)[C@H]2CO)c1` [Compound 1029, (2R,3R,4R,5S)-1-[(3-{[(4-bromo-2-nitrophenyl)-amino]methyl}phenyl)methyl]-2-(hydroxymethyl)piperidine-3,4,5-triol], the IC50 is 52300 nM in experiment [1] and 1330 nM in experiment [2].
Take `O=[N+]([O-])c1cc(Br)ccc1NCc1ccc(CN2C[C@H](O)[C@@H](O)[C@H](O)[C@H]2CO)cc1` [Compound 1030, (2R,3R,4R,5S)-1-[(4-{[(4-bromo-2-nitrophenyl)amino]methyl}phenyl)methyl]-2-(hydroxymethyl)piperidine-3,4,5-triol]: the half-inhibitory concentration (IC50) in experiment [1] is 32300 nM; in experiment [2], 135 nM.

For orientation: IC50 means the concentration that gives 50% inhibition.
